Measured values taken from ChEMBL document CHEMBL3396992, “Synthesis and biological evaluation of pyrazolylthiazole carboxylic acids as potent anti-inflammatory-antimicrobial agents” (2015).
Values after ≈ are worked out from the molar mass of the structure shown. Active and inactive are the calls of the source. The rule behind the calls is not given here.

Key:
[1] = test system: Rattus norvegicus; experiment: Antiinflammatory activity against carrageenan-induced paw edema male Wistar albino rat assessed as edema volume at 50 mg/kg, po administered 30 mins prior to carrageenan-challenge measured after 1 hr (reference value: 1.11 +/- 0.12 mL); assay type: functional
[2] = test system: Rattus norvegicus; experiment: Antiinflammatory activity against carrageenan-induced paw edema male Wistar albino rat assessed as edema volume at 50 mg/kg, ip administered 30 mins prior to carrageenan-challenge measured after 2 hrs (reference value: 1.21 +/- 0.16 mL); assay type: functional; conditions: route intraperitoneal
[3] = test system: Rattus norvegicus; experiment: Antiinflammatory activity against carrageenan-induced paw edema male Wistar albino rat assessed as edema volume at 50 mg/kg, ip administered 30 mins prior to carrageenan-challenge measured after 3 hrs (reference value: 1.73 +/- 0.09 mL); assay type: functional; conditions: route intraperitoneal
[4] = test system: Rattus norvegicus; experiment: Antiinflammatory activity against carrageenan-induced paw edema male Wistar albino rat assessed as edema volume at 50 mg/kg, ip administered 30 mins prior to carrageenan-challenge measured after 4 hrs (reference value: 1.88 +/- 0.20 mL); assay type: functional; conditions: route intraperitoneal
[5] = test system: Rattus norvegicus; experiment: Antiinflammatory activity against carrageenan-induced paw edema male Wistar albino rat at 50 mg/kg, ip administered 30 mins prior to carrageenan-challenge measured after 1 hr relative to control; assay type: functional; conditions: route intraperitoneal
[6] = test system: Rattus norvegicus; experiment: Antiinflammatory activity against carrageenan-induced paw edema male Wistar albino rat at 50 mg/kg, ip administered 30 mins prior to carrageenan-challenge measured after 2 hrs relative to control; assay type: functional; conditions: route intraperitoneal
[7] = test system: Rattus norvegicus; experiment: Antiinflammatory activity against carrageenan-induced paw edema male Wistar albino rat at 50 mg/kg, ip administered 30 mins prior to carrageenan-challenge measured after 3 hrs relative to control; assay type: functional; conditions: route intraperitoneal
[8] = test system: Rattus norvegicus; experiment: Antiinflammatory activity against carrageenan-induced paw edema male Wistar albino rat at 50 mg/kg, ip administered 30 mins prior to carrageenan-challenge measured after 4 hrs relative to control; assay type: functional; conditions: route intraperitoneal
[9] = test system: Staphylococcus aureus; experiment: Antimicrobial activity against Staphylococcus aureus MTCC 96 assessed as growth inhibition at 4 mg/ml after 24 hrs by agar well diffusion method; assay type: functional; conditions: for zone of inhibition at 4000 µg/mL: MTCC 96, 24 h, read-out: DIZ
[10] = test system: Staphylococcus aureus; experiment: Antimicrobial activity against Staphylococcus aureus MTCC 96 assessed as growth inhibition after 24 hrs by agar well diffusion method; assay type: functional
[11] = test system: Bacillus subtilis; experiment: Antimicrobial activity against Bacillus subtilis MTCC 121 assessed as growth inhibition at 4 mg/ml after 24 hrs by agar well diffusion method; assay type: functional; conditions: for zone of inhibition at 4000 µg/mL: MTCC 121, 24 h, read-out: DIZ
[12] = test system: Bacillus subtilis; experiment: Antimicrobial activity against Bacillus subtilis MTCC 121 assessed as growth inhibition after 24 hrs by agar well diffusion method; assay type: functional
[13] = test system: Escherichia coli; experiment: Antimicrobial activity against Escherichia coli MTCC 1652 assessed as growth inhibition at 4 mg/ml after 24 hrs by agar well diffusion method; assay type: functional, organism-based
[14] = test system: Saccharomyces cerevisiae; experiment: Antimicrobial activity against Saccharomyces cerevisiae MTCC 170 assessed as growth inhibition at 4 mg/ml after 24 hrs by agar well diffusion method; assay type: functional; conditions: for zone of inhibition at 4000 µg/mL: MTCC 170, 24 h, read-out: DIZ
[15] = test system: Saccharomyces cerevisiae; experiment: Antimicrobial activity against Saccharomyces cerevisiae MTCC 170 assessed as growth inhibition after 24 hrs by agar well diffusion method; assay type: functional
[16] = test system: Candida albicans; experiment: Antimicrobial activity against Candida albicans MTCC 3017 assessed as growth inhibition at 4 mg/ml after 24 hrs by agar well diffusion method; assay type: functional; conditions: MTCC 3017, 24 h, read-out: DIZ
[17] = test system: Candida albicans; experiment: Antimicrobial activity against Candida albicans MTCC 3017 assessed as growth inhibition after 24 hrs by agar well diffusion method; assay type: functional; conditions: MTCC 3017, 24 h
[18] = test system: Pseudomonas aeruginosa; conditions: MTCC 741, 4 mg/ml
Description: Antimicrobial activity against Pseudomonas aeruginosa MTCC 741 assessed as growth inhibition at 4 mg/ml after 24 hrs by agar well diffusion method

| Structure (SMILES) | Activity [1] [mL] | Activity [2] [mL] | Activity [3] [mL] | Activity [4] [mL] | Activity [5] [%] | Activity [6] [%] | Activity [7] [%] | Activity [8] [%] | zone of inhibition at 4000 µg/mL [9] [mm] | MIC ([10]; MTCC 96, 24 h) [µg/mL] | zone of inhibition at 4000 µg/mL [11] [mm] | MIC ([12]; MTCC 121, 24 h) [µg/mL] | diameter of the inhibition zone (DIZ) [13] | zone of inhibition at 4000 µg/mL [14] [mm] | MIC ([15]; MTCC 170, 24 h) [µg/mL] | zone of inhibition at 4000 µg/mL [16] [mm] | MIC [17] [µg/mL] | DIZ [18] | diameter of the inhibition zone (DIZ) [14] | MIC [15] | also measured |
| --- | --- | --- | --- | --- | --- | --- | --- | --- | --- | --- | --- | --- | --- | --- | --- | --- | --- | --- | --- | --- | --- |
| O=C(O)c1sc(-c2cn(-c3ccccc3)nc2-c2ccc(F)cc2)nc1-c1ccc(F)cc1 | 0.23 | 0.57 | 0.61 | 0.47 | 79.27 | 52.89 | 64.73 | 75 | 15.3 | 50 (≈ 109 µM) | 17.6 | 50 (≈ 109 µM) | inactive | 17.6 | 25 (≈ 54.4 µM) | 19.6 | 25 (≈ 54.4 µM) | inactive | – | – | – |
| C[C@@H]1[C@H](O)[C@@H](C)/C=C/C=C/C=C/C=C/C=C/C=C/C=C/[C@H](O[C@@H]2O[C@H](C)[C@@H](O)[C@H](N)[C@@H]2O)C[C@@H]2O[C@](O)(C[C@@H](O)C[C@@H](O)[C@H](O)CC[C@@H](O)C[C@@H](O)CC(=O)O[C@H]1C)C[C@H](O)[C@H]2C(=O)O [AMPHOTERICIN B] | – | – | – | – | – | – | – | – | – | – | – | – | – | 19.3 | 6.25 (≈ 6.76 µM) | 16.6 | 6.25 (≈ 6.76 µM) | – | – | – | – |
| CCOC(=O)c1sc(-c2cn(-c3ccccc3)nc2-c2ccc(OC)cc2)nc1-c1ccc(F)cc1 | 0.18 | 0.18 | 0.31 | 0.37 | 83.78 | 85.12 | 82.08 | 80.31 | – | – | 20.6 | 25 (≈ 50 µM) | inactive | – | – | 24.6 | 12.5 (≈ 25 µM) | inactive | inactive | inactive | diameter of the inhibition zone (DIZ) [9]: inactive; MIC [10]: inactive |
| CCOC(=O)c1sc(-c2cn(-c3ccccc3)nc2-c2ccc(Cl)cc2)nc1-c1ccc(F)cc1 | 0.18 | 0.47 | 0.5 | 0.19 | 83.78 | 61.15 | 71.09 | 89.89 | 12 | 50 (≈ 99.2 µM) | 13.3 | 50 (≈ 99.2 µM) | inactive | – | – | 17.6 | 50 (≈ 99.2 µM) | inactive | inactive | inactive | – |
| CCOC(=O)c1sc(-c2cn(-c3ccccc3)nc2-c2ccc(Cl)cc2)nc1-c1ccccc1 | 0.12 | 0.22 | 0.32 | 0.28 | 89.89 | 81.81 | 81.5 | 85.1 | – | – | 12 | 50 (≈ 103 µM) | inactive | – | – | 16 | 50 (≈ 103 µM) | inactive | inactive | inactive | diameter of the inhibition zone (DIZ) [9]: inactive; MIC [10]: inactive |
| CCOC(=O)c1sc(-c2cn(-c3ccccc3)nc2-c2ccc(OC)cc2)nc1-c1ccc(OC)cc1 | 0.15 | 0.19 | 0.27 | 0.17 | 86.48 | 84.29 | 84.39 | 90.95 | 15 | 50 (≈ 97.7 µM) | – | – | – | – | – | 16.6 | 50 (≈ 97.7 µM) | – | inactive | inactive | diameter of the inhibition zone (DIZ) [11]: inactive; MIC [12]: inactive |
